Columns and labels:
Alternaria solani = test: Persistency against early blight on tomatoes caused by Alternaria solani, protective treatment; format: in vivo; conditions: tomato cultivar Goldene Prinzessin, sprayed with 16 ppm a.i., infected only after seven days, rating after a further 5 days; untreated 90
Protocol: The active compounds were prepared separately as a stock solution with 0.25% by weight of active compound in acetone or DMSO. 1% by weight of the emulsifier Uniperol® EL (wetting agent having emulsifying and dispersing action based on ethoxylated alkylphenols) was added to this solution. The stock solutions of the active compounds were diluted with water to the stated concentration.
2. Persistency Against Early Blight on Tomatoes Caused by Alternaria solani, Protective Treatment
Leaves of potted plants of the cultivar “Goldene Prinzessin” were sprayed to runoff point with an aqueous suspension having the concentration of active compound stated below.
To test for persistency, the leaves were infected with an aqueous spore suspension of Alternaria solani in a 2% strength biomalt solution having a density of 0.17×10^6 spores/ml only after seven days. The plants were then placed in a water-vapor-saturated chamber at 20-22° C. After a further 5 days, the disease on the untreated, but infected control plants had developed to such an extent that the infection could be determined visually in %.

Phytophthora infestans = format: in vivo; conditions: tomato cultivar Goldene Prinzessin, sprayed with 250 ppm a.i., infected next day, visual rating after 6 days; untreated 80

Compound | infection at 16 ppm of a.i. (% leaf area) (Alternaria solani) | infection at 250 ppm of a.i. (% leaf area) (Phytophthora infestans)
C[C@H](Nc1nc(C(N)=O)nc(Cl)c1-c1c(F)cc(F)cc1F)C(F)(F)F [I-5, 4-chloro-6-((S)-2,2,2-trifluoro-1-methylethylamino)-5-(2,4,6-trifluorophenyl)-pyrimidine-2-carboxamide] | 30 % leaf area | 0 % leaf area
CC(C)OC(=O)c1nc(Cl)c(-c2c(F)cc(F)cc2F)c(N[C@@H](C)C(F)(F)F)n1 [V-3, isopropyl 4-chloro-6-((S)-2,2,2-trifluoro-1-methylethylamino)-5-(2,4,6-trifluorophenyl)pyrimidine-2-carboxylate] | – | 5 % leaf area
